Experimental data as given in patent publication US6924302B2, “Substituted triazole diamine derivatives as kinase inhibitors” (Ortho McNeil Pharmaceutical, Inc., priority 2000, dated 2005).
Like-named read-outs stand apart in the source and are kept apart here.

Tests used:
[1] = target: T1, HER2 (human epidermal growth factor receptor-2) (Homo sapiens, UniProt P04626); assay: Kinase Selectivity Assay HER2; assay type: biochemical
T1 construct: begins at amino acid 676 followed by the remainder of the HER2 cytoplasmic domain; polyhistidine (N)
Method in brief: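 Radiometric Flashplate format: ^33P-γ-ATP transfer to immobilized biotinylated peptide, 1 h, 30° C, 1% DMSO final, enzyme in 50 mM Tris-HCl pH=8.0 + 0.1% BSA. Duplicate 8-point dilution, 100 uM down to 10 pM. IC50 from % inhibition of plate max signal versus log conc.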

[2] = target: T2, MAP Kinase (ERK-2 isoform) (Rattus norvegicus, UniProt P63086); assay: Kinase Selectivity Assay MAP Kinase (ERK-2); assay type: biochemical; details: Kinase Selectivity, Tables 2a-2k; read-out: ERK 2 IC50
T2 construct: polyhistidine (N); host or cells: E. coli
Protocol: (§1) Assays to test compound inhibition of other kinases were preformed using methods that measure the amount of phosphorylation of a biotinylated peptide substrate. Biotinylated peptide substrates were selected from the literature as appropriate for the enzyme being evaluated. […] Assay conditions vary slightly for each protein kinase, for example, insulin receptor kinase requires 10 mM MnCl2 for activity and Calmodulin-dependent protein kinase requires calmodulin and 10 mM CaCl2. These assay conditions are known in the art. The reaction mixture was dispensed into the wells of a streptavidin coated Flashplate and 1 μl drug stock in 100% DMSO was added to a 100 μl reaction volume resulting in a final concentration of 1% DMSO on the reaction. Enzyme was diluted in 50 mM Tris-HCl pH=8.0, 0.1% BSA and add to each well. The reaction was incubated for one hour at 30° C. in the presence of compound. After one hour the reaction mix was aspirated from the plate and the plate was washed with PBS containing 100 mM EDTA. The plate was read on a scintillation counter to determine ^33P-γ-ATP incorporated into the immobilized peptide. Test compounds were assayed in duplicate at 8 concentrations [100 uM, 10 uM, 1 uM, 100 nM, 10 nM, 1 nM, 100 pM, 10 pM]. A maximum and minimum signal for the assay was determined on each plate. The IC50 was calculated from the dose response curve of the percent inhibition of the maximum signal in the assay according to the formula [max signal—background/test compound signal—background (100)=% inhibition] by graphing the percent inhibition against the log concentration of test compound. Known inhibitor compounds appropriate for the kinase being assayed were also included on each plate.
(§2) CDK2 in complex with cyclin A is commercially available (Upstate Biotech, Lake Placid, N.Y.). The CDK4 complex was composed of a mouse CDK4 protein and a mouse Cyclin D1 protein (The mouse CDK4 protein was genetically fused to an N-terminal Flag-epitope tag and the mouse Cyclin D1 protein was fused with an N-terminal AU-1 epitope tag. The genes encoding these proteins were transferred to commercially available baculoviral vectors. The recombinant CDK4/D1 complex was then made by co-infecting commercially available insect cells with viruses carrying these two constructs). […] ERK-1 protein (Discontinued from Calbiochem). EGFR (epidermal growth factor receptor) is purified from human A431 cell membranes (Sigma, St. Louis, Mo., Cat.# E3641).

[3] = target: T3, Casein Kinase 2 (alpha and beta subunits) (Homo sapiens, UniProt P68400); assay: Kinase Selectivity Assay Casein Kinase 2; assay type: biochemical; details: Kinase Selectivity, Tables 2a-2k; read-out: Caseine Kinase 2 IC50
T3 construct: purchased New England Biolabs 6010; host or cells: E. coli
Protocol: as §1, §2

[4] = target: T4, Glycogen Synthase Kinase-3 (beta isoform) (Oryctolagus cuniculus, UniProt G1T8E2); assay: Kinase Selectivity Assay Glycogen Synthase Kinase-3; assay type: biochemical, rabbit; details: Kinase Selectivity, Tables 2a-2k; read-out: GSK-3 IC50
T4 construct: purchased New England Biolabs 6040; host or cells: E. coli
Protocol: as §1, §2

FGF-R2 = FGF-R2 (Homo sapiens, UniProt P21802); assay: Kinase Selectivity Assay FGF-R2; assay type: biochemical; details: Tables 2a-2k
Protocol: as §1

Protein Kinase A = target: T5, Protein Kinase A (Bos taurus, UniProt P00517); assay: Kinase Selectivity Assay Protein Kinase A; assay type: biochemical, bovine; details: Kinase Selectivity, Tables 2a-2k; read-out: PKA IC50
T5 construct: purified from bovine heart; purchased Upstate Biotech 14-114; host or cells: bovine heart
Protocol: as §1, §2

Insulin Receptor Kinase = Insulin Receptor Kinase (Homo sapiens, UniProt P06213); assay: Kinase Selectivity Assay Insulin Receptor Kinase; assay type: biochemical; details: Kinase Selectivity, Tables 2a-2k; read-out: Insulin R Kinase IC50
Protocol: as §1, §2

CDK1:Cyclin-B = target: T6, CDK1:Cyclin-B (Homo sapiens, UniProt P06493); assay: CDK1 Screening Assay; assay type: biochemical; details: read-out: CDK1 IC50
T6 construct: purchased New England Biolabs 6020; host or cells: insect cells
Method in brief: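 Human CDK1:cyclin-B (30 ng/well) with biotinylated histone-H1 peptide and ^33P-γ-ATP, 1 h at 30° C, 1% DMSO, on streptavidin FlashPlate; incorporation read by scintillation.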

[5] = target: T7, Casein Kinase 1 (CK1 delta isoform) (Rattus norvegicus, UniProt Q06486); assay: Kinase Selectivity Assay Casein Kinase 1; assay type: biochemical; details: Tables 2a-2k, read-out: Caseine Kinase 1 IC50
T7 construct: a truncation at amino acid 318 of the C-terminal portion of the rat CK1 delta isoform; purchased New England Biolabs 6030; host or cells: E. coli
T7 sequence (Q06486 1-317): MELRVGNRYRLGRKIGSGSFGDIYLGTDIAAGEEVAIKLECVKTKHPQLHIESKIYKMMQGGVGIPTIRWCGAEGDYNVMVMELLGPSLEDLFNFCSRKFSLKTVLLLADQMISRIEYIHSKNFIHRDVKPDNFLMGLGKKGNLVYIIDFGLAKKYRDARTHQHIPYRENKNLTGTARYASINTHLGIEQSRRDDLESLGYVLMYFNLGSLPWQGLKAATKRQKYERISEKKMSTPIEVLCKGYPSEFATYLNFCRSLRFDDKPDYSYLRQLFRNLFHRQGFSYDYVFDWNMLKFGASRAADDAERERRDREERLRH
Protocol: as §1, §2

[6] = target: T8, PDGF-R (platelet derived growth factor receptor) beta subunit kinase domain (Homo sapiens, UniProt P09619); assay: Kinase Selectivity Assay PDGF-R; assay type: biochemical; details: Kinase Selectivity, Tables 2a-2k; read-out: PDGF-R kinase IC50
T8 construct: nucleotides 1874-3507 of the human PDGF-R beta subunit kinase domain; polyhistidine (N)
Protocol: as §1, §2

[7] = target: T9, Calmodulin Kinase (calmodulin-dependent protein kinase 2) (Rattus norvegicus, UniProt P11275); assay: Kinase Selectivity Assay Calmodulin Kinase; assay type: biochemical; details: Kinase Selectivity, Tables 2a-2k; read-out: Calmodulin Kinase 2 IC50
T9 construct: a truncated version of the alpha subunit of the rat protein; purchased New England Biolabs 6060; host or cells: insect cells
Protocol: as §1, §2

[8] = tested on: PC-3 prostate adenocarcinoma; assay: Inhibition of Cell Proliferation (14C-thymidine incorporation), PC-3; assay type: cell-based; details: Homo sapiens, PC-3 cell line
Protocol: (§3) The ability of a test compound to inhibit the proliferation of cell growth was determined by measuring incorporation of ^14C-labelled thymidine into newly synthesized DNA within the cells. This method was used on cell lines derived from carcinomas originating from several tissues such as HeLa cervical adenocarcinoma (American Type Culture Collection (ATCC), Virginia, Cat. #CCL-2), A375 malignant melanoma (ATCC CRL-1619), SK-OV-3 ovarian adenocarcinoma (ATCC HTB-77) HCT-116 colon carcinoma (CCL-247), PC-3 prostate adenocarcinoma (ATCC CRL-1435), and MDA-MB-231 (Xenogen Corp.) In this way the effect of a compound on cell growth of cells with many different phenotypes can be determined. Cells were trypsinized and counted and 3000-8000 cells were added to each well of a 96-well CytoStar tissue culture treated scintillating microplate (Amersham #RPNQ0160) in complete medium in a volume of 100 μl. Cells were incubated for 24 hours in complete medium at 37° C. in an atmosphere containing 5% CO2. Next, 1 μl of test compound in 100% DMSO was added to the wells of the plate. DMSO only was added to control wells. Cells were incubated for 24 more hours in complete medium at 37° C. in an atmosphere containing 5% CO2. Methyl ^14C-thymidine 56 mCi/mmol (NEN #NEC568 or Amersham #CFA532) was diluted in complete medium and 0.2 uCi/well was added to each well of the CytoStar plate in a volume of 20 μl. The plate was incubated for 24 hours at 37° C. plus 5% CO2 in drug plus ^14C-thymidine. The contents of the plate were discarded into a ^14C radioactive waste container by inverting the plate and the plate was washed twice with 200 μl PBS. 200 μl of PBS is added to each well. The top of the plate was sealed with a transparent plate sealer and a white plate backing sealer (Packard #6005199) was applied to the bottom of the plate. The degree of methyl ^14C-thymidine incorporation was quantified on a Packard Top Count.

[9] = tested on: HeLa cervical adenocarcinoma; assay: Inhibition of Cell Proliferation (14C-thymidine incorporation), HeLa; assay type: cell-based; details: Homo sapiens, HeLa cell line
Protocol: as §3

[10] = target: T10, CDK2 in complex with cyclin A (Homo sapiens, UniProt P24941); assay: Kinase Selectivity Assay CDK2; assay type: biochemical; details: Table 1
T10 construct: purchased Upstate Biotech
Protocol: as §1, §2

A375 malignant melanoma = assay: Inhibition of Cell Proliferation (14C-thymidine incorporation), A375; assay type: cell-based; details: Homo sapiens, A-375, A375 cell line
Protocol: as §3

HCT-116 colon carcinoma = assay: Inhibition of Cell Proliferation (14C-thymidine incorporation), HCT-116; assay type: cell-based; details: Homo sapiens, HCT-116 cell line
Protocol: as §3

[11] = Kinase Selectivity, Tables 2a-2k, read-out: HER2 Kinase IC50

T3 sequence (P68400 whole entry): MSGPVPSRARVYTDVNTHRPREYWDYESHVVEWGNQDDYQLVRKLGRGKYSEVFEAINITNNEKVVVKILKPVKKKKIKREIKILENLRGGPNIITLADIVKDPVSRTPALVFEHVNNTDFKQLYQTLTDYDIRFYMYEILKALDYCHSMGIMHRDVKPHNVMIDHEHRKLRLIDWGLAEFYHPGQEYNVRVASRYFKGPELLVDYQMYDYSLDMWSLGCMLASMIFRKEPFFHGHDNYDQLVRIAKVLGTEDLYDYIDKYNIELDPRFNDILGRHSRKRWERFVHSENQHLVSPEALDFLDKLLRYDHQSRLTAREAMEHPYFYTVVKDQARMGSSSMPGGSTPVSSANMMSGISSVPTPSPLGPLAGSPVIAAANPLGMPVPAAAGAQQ
T3 sequence (P67870 whole entry partner): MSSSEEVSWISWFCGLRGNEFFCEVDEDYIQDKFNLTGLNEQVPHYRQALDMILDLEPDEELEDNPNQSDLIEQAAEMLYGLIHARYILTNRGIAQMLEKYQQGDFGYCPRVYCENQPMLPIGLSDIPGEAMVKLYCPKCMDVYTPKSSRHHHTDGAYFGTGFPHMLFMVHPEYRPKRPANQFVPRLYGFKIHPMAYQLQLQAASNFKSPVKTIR
Chain of FGF-R2 (P21802 22-821, species assumed): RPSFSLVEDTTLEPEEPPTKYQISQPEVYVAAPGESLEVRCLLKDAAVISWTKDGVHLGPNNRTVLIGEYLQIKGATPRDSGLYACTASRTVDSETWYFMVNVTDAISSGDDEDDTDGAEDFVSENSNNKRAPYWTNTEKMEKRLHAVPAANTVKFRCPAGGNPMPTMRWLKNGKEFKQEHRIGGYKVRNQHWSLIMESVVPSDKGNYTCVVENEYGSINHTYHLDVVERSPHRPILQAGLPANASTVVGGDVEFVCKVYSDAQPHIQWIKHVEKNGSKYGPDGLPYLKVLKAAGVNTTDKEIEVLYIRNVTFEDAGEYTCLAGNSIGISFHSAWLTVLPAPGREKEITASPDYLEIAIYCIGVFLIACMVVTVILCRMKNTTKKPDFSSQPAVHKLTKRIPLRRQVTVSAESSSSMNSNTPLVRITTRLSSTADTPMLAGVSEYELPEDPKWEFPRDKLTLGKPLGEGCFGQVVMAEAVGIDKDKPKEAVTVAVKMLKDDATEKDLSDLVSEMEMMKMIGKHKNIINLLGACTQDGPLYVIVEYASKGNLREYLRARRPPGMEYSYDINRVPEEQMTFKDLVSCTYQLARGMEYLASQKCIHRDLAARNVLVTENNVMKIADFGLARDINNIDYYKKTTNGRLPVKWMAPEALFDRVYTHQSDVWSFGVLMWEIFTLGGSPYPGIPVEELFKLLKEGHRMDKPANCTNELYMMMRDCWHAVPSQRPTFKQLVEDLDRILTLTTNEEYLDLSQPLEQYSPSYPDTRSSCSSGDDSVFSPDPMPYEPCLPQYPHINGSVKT
T2 sequence (P63086 whole entry, canonical isoform): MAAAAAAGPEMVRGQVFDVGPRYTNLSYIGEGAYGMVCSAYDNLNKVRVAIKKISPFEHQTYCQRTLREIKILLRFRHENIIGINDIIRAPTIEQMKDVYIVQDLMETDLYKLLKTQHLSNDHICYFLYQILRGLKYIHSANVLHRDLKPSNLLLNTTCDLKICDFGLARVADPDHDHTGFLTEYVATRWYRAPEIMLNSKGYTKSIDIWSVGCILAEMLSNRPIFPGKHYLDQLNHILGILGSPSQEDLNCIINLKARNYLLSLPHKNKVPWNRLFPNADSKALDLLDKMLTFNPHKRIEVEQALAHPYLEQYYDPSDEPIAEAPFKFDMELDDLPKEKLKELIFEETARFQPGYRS
T1 sequence (P04626 676-1255 limits assumed): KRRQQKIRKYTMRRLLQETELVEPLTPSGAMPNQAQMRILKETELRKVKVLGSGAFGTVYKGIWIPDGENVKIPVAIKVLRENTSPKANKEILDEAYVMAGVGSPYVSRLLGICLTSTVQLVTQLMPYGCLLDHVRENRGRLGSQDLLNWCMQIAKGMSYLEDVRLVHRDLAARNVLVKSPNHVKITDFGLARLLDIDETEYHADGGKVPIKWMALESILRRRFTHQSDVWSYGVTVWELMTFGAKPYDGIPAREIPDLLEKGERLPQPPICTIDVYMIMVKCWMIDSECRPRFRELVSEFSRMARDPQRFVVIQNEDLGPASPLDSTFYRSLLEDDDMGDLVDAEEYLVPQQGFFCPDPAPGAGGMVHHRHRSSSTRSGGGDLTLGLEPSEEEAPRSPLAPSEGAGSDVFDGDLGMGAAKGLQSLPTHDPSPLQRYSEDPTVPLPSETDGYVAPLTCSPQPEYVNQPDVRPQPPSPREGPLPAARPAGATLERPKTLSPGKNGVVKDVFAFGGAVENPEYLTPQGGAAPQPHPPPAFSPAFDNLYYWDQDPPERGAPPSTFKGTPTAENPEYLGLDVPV
T4 sequence (G1T8E2 1-432): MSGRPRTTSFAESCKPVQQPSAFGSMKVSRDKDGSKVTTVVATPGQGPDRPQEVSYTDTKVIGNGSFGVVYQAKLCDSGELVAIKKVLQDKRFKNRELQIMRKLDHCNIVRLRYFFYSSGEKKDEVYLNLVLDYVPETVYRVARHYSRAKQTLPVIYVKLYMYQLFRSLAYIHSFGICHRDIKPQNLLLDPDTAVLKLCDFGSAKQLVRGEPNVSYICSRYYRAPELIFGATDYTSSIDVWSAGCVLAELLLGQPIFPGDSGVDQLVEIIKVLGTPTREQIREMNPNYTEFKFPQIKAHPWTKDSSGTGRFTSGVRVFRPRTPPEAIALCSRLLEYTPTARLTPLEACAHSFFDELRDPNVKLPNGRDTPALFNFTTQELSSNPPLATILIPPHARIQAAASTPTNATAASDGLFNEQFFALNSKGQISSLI
Chain of Insulin Receptor Kinase (P06213 980-1352): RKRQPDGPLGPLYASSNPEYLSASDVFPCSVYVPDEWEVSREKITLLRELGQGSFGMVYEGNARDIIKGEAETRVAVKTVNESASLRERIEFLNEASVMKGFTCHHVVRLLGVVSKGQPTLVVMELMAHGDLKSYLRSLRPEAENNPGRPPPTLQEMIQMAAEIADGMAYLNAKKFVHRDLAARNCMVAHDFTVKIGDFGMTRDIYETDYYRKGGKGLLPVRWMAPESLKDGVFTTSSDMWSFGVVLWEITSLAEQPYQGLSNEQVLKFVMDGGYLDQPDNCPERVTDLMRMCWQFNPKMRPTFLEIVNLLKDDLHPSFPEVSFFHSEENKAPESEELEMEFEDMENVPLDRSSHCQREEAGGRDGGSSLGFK
T8 sequence (P09619 564-1106): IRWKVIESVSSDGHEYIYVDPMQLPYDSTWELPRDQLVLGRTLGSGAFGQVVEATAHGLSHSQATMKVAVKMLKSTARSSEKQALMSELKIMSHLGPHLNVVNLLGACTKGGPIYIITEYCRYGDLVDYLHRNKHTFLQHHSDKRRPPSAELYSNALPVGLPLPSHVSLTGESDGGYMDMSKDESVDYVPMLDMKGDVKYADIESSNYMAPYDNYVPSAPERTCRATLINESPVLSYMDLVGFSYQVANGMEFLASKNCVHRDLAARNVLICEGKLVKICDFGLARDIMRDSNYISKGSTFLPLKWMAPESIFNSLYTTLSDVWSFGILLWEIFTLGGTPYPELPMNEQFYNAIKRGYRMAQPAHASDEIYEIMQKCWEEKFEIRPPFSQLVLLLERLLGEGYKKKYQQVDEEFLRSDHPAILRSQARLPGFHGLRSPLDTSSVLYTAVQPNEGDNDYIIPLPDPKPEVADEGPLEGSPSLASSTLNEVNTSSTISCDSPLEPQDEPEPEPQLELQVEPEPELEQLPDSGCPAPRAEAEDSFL
T6 sequence (P06493 whole entry): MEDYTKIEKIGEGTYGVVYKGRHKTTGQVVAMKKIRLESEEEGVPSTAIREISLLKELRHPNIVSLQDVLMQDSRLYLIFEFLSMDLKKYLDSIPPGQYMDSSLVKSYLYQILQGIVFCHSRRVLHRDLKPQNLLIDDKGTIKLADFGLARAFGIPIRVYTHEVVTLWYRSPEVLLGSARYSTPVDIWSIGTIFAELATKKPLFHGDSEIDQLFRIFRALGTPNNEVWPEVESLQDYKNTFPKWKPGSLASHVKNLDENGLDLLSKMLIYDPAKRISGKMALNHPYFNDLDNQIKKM
T6 sequence (P14635 whole entry partner): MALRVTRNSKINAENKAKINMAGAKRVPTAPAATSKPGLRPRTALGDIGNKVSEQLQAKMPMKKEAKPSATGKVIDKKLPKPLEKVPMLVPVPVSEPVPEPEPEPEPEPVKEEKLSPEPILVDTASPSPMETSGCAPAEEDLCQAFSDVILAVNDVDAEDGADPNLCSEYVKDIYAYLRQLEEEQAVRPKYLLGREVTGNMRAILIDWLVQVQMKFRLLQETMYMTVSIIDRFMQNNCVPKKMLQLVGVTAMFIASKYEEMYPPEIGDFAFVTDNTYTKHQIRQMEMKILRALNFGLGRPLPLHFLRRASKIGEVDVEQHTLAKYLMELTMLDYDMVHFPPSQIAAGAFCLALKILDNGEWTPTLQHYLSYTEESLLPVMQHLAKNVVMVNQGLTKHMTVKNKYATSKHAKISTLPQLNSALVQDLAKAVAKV

SMILES	IC50 [1, 11]	IC50 ([1]; Table 1, read-out: HER2 IC50)	IC50 [2]	IC50 [3]	IC50 [4]	IC50 (FGF-R2)	IC50 (Protein Kinase A)	IC50 (Insulin Receptor Kinase)	IC50 (CDK1:Cyclin-B; Kinase Selectivity, Tables 2a-2k)	IC50 (CDK1:Cyclin-B; Table 1)	IC50 [5]	IC50 [6]	IC50 [7]	IC50 [8]	IC50 [9]	IC50 [10]	IC50 (A375 malignant melanoma)	IC50 (HCT-116 colon carcinoma)
Nc1ccc(F)c(C(=O)n2nc(Nc3ccc(S(N)(=O)=O)cc3)nc2N)c1F [Cpd 55, 4-[[5-amino-1-(3-amino-2,6-difluorobenzoyl)-1H-1,2,4-triazol-3-yl]amino]-benzenesulfonamide]	2.19 µM	2.19 µM	12.9 µM	> 100 µM	0.04 µM	0.478 µM	> 100 µM	> 100 µM	0.02 µM	0.022 µM	9.6 µM	16.2 µM	> 100 µM	–	–	–	–	–
Cc1cc(C)c(C(=O)n2nc(Nc3ccc(-n4ccnc4)cc3)nc2N)s1 [Cpd 92, 1-[(3,5-dimethyl-2-thienyl)carbonyl]-N^3-[4-(1H-imidazol-1-yl)phenyl]-1H-1,2,4-triazole-3,5-diamine]	–	–	> 100 µM	> 100 µM	0.021 µM	0.242 µM	> 100 µM	3.08 µM	–	–	> 10 µM	0.282 µM	19.7 µM	1120 nM	269 nM	–	–	–
Cc1ccc(F)c(C(=O)n2nc(Nc3ccc(S(=O)(=O)NCCN(C)C)cc3)nc2N)c1F [Cpd 105]	–	–	18.2 µM	> 100 µM	0.082 µM	0.142 µM	> 100 µM	9.85 µM	–	–	4.49 µM	2.2 µM	> 100 µM	–	626 nM	0.002 µM	652 nM	320 nM
Cc1cc(C)c(C(=O)n2nc(Nc3ccc(S(=O)(=O)NCCN(C)C)cc3)nc2N)s1 [Cpd 107]	–	–	> 10 µM	> 10 µM	0.015 µM	0.235 µM	> 100 µM	0.311 µM	–	–	0.412 µM	0.143 µM	3.43 µM	–	177 nM	0.002 µM	113 nM	95 nM
Cc1ccsc1C(=O)n1nc(Nc2ccc(NS(C)(=O)=O)cc2)nc1N [Cpd 109]	–	–	> 10 µM	> 10 µM	0.039 µM	0.244 µM	> 100 µM	2.76 µM	–	–	1.18 µM	0.413 µM	> 100 µM	307 nM	479 nM	0.021 µM	–	51 nM
CCc1ccc(C(=O)n2nc(Nc3ccc(NS(C)(=O)=O)cc3)nc2N)s1 [Cpd 110]	0.006 µM	0.0055 µM	8.75 µM	> 5 µM	0.008 µM	0.153 µM	> 100 µM	0.053 µM	–	–	0.192 µM	0.285 µM	> 100 µM	–	237 nM	0.005 µM	239 nM	187 nM
Nc1nc(Nc2ccc(N3CCNC3=O)cc2)nn1C(=O)c1c(F)cccc1F [Cpd 115, 1-[4-[[5-amino-1-(2,6-difluorobenzoyl)-1H-1,2,4-triazol-3-yl]amino]phenyl]-2-imidazolidinone]	–	–	> 10 µM	> 100 µM	0.391 µM	–	> 100 µM	> 10 µM	–	–	9.98 µM	> 10 µM	> 100 µM	–	676 nM	–	529 nM	486 nM
Cc1ccsc1C(=O)n1nc(Nc2ccc(S(=O)(=O)Nc3ccccn3)cc2)nc1N [Cpd 121]	–	–	> 100 µM	> 100 µM	0.029 µM	–	> 100 µM	> 100 µM	–	–	> 10 µM	0.394 µM	> 100 µM	–	310 nM	0.003 µM	215 nM	608 nM
